The text below walks through data of BindingDB's records for doi:10.1021/acs.jmedchem.7b00089 (International Centre For Genetic Engineering and …, 2017).

The assay concerns the target T1, Heme ligase (Plasmodium falciparum (isolate 3D7), UniProt Q8IL04).
T1 sequence (Q8IL04 whole entry): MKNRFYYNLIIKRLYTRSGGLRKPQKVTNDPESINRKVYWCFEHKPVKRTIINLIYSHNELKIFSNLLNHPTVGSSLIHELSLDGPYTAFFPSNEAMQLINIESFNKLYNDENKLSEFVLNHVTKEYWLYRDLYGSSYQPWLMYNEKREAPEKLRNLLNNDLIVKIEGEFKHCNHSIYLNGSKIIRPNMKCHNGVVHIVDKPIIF
The assay is described as follows: ChEBML_1681013. The source says:
Binding affinity to Plasmodium falciparum 3D7 HDP assessed as equilibrium dissociation constant by SPR assay

As to `FC(F)(F)c1cccc(N2CCN(C3=Cc4ccccc4CC3)CC2)c1`, the Kd (commonly the concentration at which binding is half-saturated) was found to be 2.96 µM.
